One assay relates to Norovirus. Nature of the assay: Antiviral activity against Norovirus in cell-based replicon system. For orientation: Replicon systems follow genome replication, usually without infectious particles.
The test system of assay [1] is Norovirus 3CL protease (Norovirus). Put plainly: Inhibition of Norovirus 3CL protease by FRET assay.
Assay [2] is filed under the species Homo sapiens. Nature of the assay: Inhibition of human neutrophil elastase at 17.5 uM after 30 mins.
Assay [3] concerns the target T1, Carboxypeptidase A1 (Homo sapiens) (UniProt P15085).
T1 sequence (whole entry): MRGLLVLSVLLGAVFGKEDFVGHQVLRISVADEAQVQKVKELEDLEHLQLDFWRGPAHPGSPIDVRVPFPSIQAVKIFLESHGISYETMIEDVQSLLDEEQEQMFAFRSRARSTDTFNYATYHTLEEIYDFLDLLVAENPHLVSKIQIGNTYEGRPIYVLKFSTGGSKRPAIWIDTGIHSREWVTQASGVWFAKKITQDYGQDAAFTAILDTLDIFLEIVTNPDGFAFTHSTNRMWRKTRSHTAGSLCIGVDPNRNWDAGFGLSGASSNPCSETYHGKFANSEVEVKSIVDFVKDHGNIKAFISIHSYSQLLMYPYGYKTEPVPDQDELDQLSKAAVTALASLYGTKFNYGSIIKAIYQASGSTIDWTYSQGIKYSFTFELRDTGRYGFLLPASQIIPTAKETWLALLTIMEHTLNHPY
Nature of the assay: Inhibition of carboxypeptidase A (unknown origin) at 43 uM after 30 mins.

In assay [4] the target is Prothrombin (Homo sapiens) (UniProt P00734). Nature of the assay: Inhibition of thrombin (unknown origin) at 2.75 uM after 30 mins.
Assay [5] is filed under the species Homo sapiens. Put plainly: Inhibition of alpha-chymotrypsin (unknown origin) at 2.5 uM after 30 mins.
A further assay concerns the target Trypsin (Homo sapiens) (UniProt P07477+P07478+P35030). Put plainly: Inhibition of trypsin (unknown origin) at 125 uM after 30 mins. The assay is classed as protein assay.

pEC50, pIC50: −log10 of the molar value.

As a reminder, the pEC50 is the EC50 on a negative log10 scale, so that one unit is a factor of ten. With `CC(C)C[C@H](NC(=O)OCc1ccccc1)C(=O)N[C@@H](CC1CCNC1=O)C(O)P(=O)(O)O` (mixture of isomers), the pEC50 in the assay with Norovirus is 5.12.
In the assay on Norovirus, `CCCCOP(=O)(OCCCC)C(O)[C@H](CC1CCNC1=O)NC(=O)[C@H](CC1CCCCC1)NC(=O)OCc1ccccc1` (mixture of isomers) had a pEC50 of 6.30.
By pIC50 is commonly meant the negative decadic logarithm of the IC50, by convention in mol/L. Read a high pIC50 as a small IC50. By inhibition is commonly meant the share of the control response that was lost under treatment. The low end stands for a response near the control, the high end for a response far below the control. In assay [1], `CCOP(=O)(OCC)C(O)[C@H](CC1CCNC1=O)NC(=O)[C@H](CC1CCCCC1)NC(=O)OCc1ccccc1` (mixture of isomers) gave a pIC50 of 5.46. For the same compound, the inhibition in the assay filed under Homo sapiens [2] was determined as 15%; in assay [3], 0%; in assay [4], 0%; in the assay filed under Homo sapiens [5] it was 0%; against Trypsin (Homo sapiens), 0%. The compound further gave a negative logarithm of the EC50 (pEC50) in the assay with Norovirus of 6.60.
Turning to `CCOP(=O)(OCC)C(O)[C@H](CC1CCNC1=O)NC(=O)[C@H](CC(C)C)NC(=O)OCc1ccccc1` (mixture of isomers), the pIC50 in assay [1] was 4.94. For the same compound, the negative-log EC50 (pEC50) in the assay on Norovirus is 6.10.
For the compound `O=C(N[C@@H](CC1CCCCC1)C(=O)N[C@@H](CC1CCNC1=O)C(O)P(=O)(OCc1ccccc1)OCc1ccccc1)OCc1ccccc1` (mixture of isomers), the pEC50 with Norovirus was 6.22.
For `O=C(N[C@@H](CC1CCCCC1)C(=O)N[C@@H](CC1CCNC1=O)C(O)P(=O)(OCC(F)(F)F)OCC(F)(F)F)OCc1ccccc1` (mixture of isomers), in assay [1], the negative-log IC50 (pIC50) is 5.19. In the assay with Norovirus, the pEC50 is 6.46.
Turning to `COP(=O)(OC)C(O)[C@H](CC1CCNC1=O)NC(=O)[C@H](CC1CCCCC1)NC(=O)OCc1ccccc1` (mixture of isomers), in assay [1], the negative logarithm of the IC50 (pIC50) was 5.08. The pEC50 with Norovirus is 5.55.
For `COP(=O)(OC)C(O)[C@H](CC1CCNC1=O)NC(=O)[C@H](CC(C)C)NC(=O)OCc1ccccc1` (mixture of isomers) the same measures were 4.69 and 5.46.
